A value given as a limit tells only on which side of the number the result lay.

The record followed here is ChEMBL document CHEMBL4831508, “Anti-inflammatory Cassane-Type Diterpenoids from the Seed Kernels of Caesalpinia sinensis” (J Nat Prod, 2021).

The test system of data set [1] is RAW264.7. The experiment in a line: Cytotoxicity against mouse RAW264.7 cells assessed as cell viability measured after 24 hrs by CCK8 assay. Type of data set: cell-based. The settings on record: raw264.7, 24 h.
The subject of data set [2] is RAW264.7. Kind of data set: Antiinflammatory activity in mouse RAW264.7 cells assessed as inhibition of LPS-induced NO production preincubated for 3 hrs followed by LPS-stimulation and measured after 24 hrs by Griess reagent based assay. Type of data set: functional, cell-based.
Data set [3] has as its system RAW264.7. The experiment in a line: Antiinflammatory activity in mouse RAW264.7 cells assessed as inhibition of LPS-induced iNOSs protein expression preincubated for 3 hrs followed by LPS-stimulation and measured after 24 hrs by Western blot analysis. Type of data set: functional, cell-based. The following applies: dose 3-30 µM. On the technique in general: Immunoblotting shows a protein as a band on a membrane.

For data set [4], the system named is RAW264.7. The experiment in a line: Antiinflammatory activity in mouse RAW264.7 cells assessed as inhibition of LPS-induced iNOS enzyme activity preincubated for 3 hrs followed by LPS-stimulation and measured after 24 hrs by fluorescence plate reader assay. The following applies: dose 3-30 µM. Type of data set: functional, cell-based.

In general, IC50 refers to the concentration that inhibits the measured activity by half. For `CO[C@@]12C[C@H]3[C@@H](C[C@@H](OC(C)=O)[C@H]4C(C)(C)CCC[C@]34C)[C@@H](C)C1=CC(=O)O2`, the Activity entry in data set [1] is recorded as “Non-Toxic”. Further, in data set [2], the IC50 was above 50 µM.

Take `CC(=O)O[C@@H]1C[C@H]2[C@@H](C)C3=CC(=O)OC3=C[C@@H]2[C@@]2(C)CCCC(C)(C)[C@H]12`: the Activity entry in data set [1] is “Non-Toxic”. In addition, in data set [2], the half-maximal inhibitory concentration (IC50) was above 50 µM.

In the case of `CO[C@@]12C[C@H]3[C@@H](C[C@@H](O)[C@H]4C(C)(C)CCC[C@]34C)[C@@H](C)C1=CC(=O)O2`, the Activity entry in data set [1] is on record as “Non-Toxic”. Also, in data set [2], the IC50 is 29.2 µM.

For `C[C@H]1C2=CC(=O)O[C@@H]2C[C@H]2[C@H]1C[C@@H](O)[C@H]1[C@@](C)(CO)CCC[C@]21C`, the Activity entry in data set [1] is on record as “Non-Toxic”. The concentration for half-maximal inhibition (IC50) in data set [2] is above 50 µM.

Take `CC(=O)O[C@@H]1CC(C)(C)[C@@H]2CC[C@H]3[C@@H](C)C4=CC(=O)O[C@@H]4C[C@@H]3[C@@]2(C)C1`: the Activity entry in data set [1] is “Non-Toxic”. In addition, in data set [2], the concentration for half-maximal inhibition (IC50) was above 50 µM.

With `CC(=O)O[C@H]1CC[C@]2(C)[C@H]3C[C@H]4OC(=O)C=C4[C@H](C)[C@@H]3CC[C@H]2C1(C)C`, the Activity entry in data set [1] is “Non-Toxic”. Moreover, in data set [2], the IC50 came to 49.8 µM.

Consider `C[C@H]1C2=CC(=O)OC2=C[C@H]2[C@H]1C[C@@H](O)[C@H]1[C@](C)(CO)CCC[C@]21C`, for which, in data set [1], the Activity entry is given as “Non-Toxic”. In addition, the IC50 in data set [2] is 45.8 µM.

For `CC(=O)O[C@@H]1C[C@@H]2[C@H](C=C3NC(=O)C=C3[C@]2(C)O)[C@@]2(C)CCCC(C)(C)[C@H]12`, in data set [1], the Activity result was “Non-Toxic”. Also, the concentration for half-maximal inhibition (IC50) in data set [2] was 11.2 µM.

As to `CC(=O)O[C@@H]1C[C@H]2[C@@H](C)C3=CC(=O)O[C@@H]3C[C@@H]2[C@@]2(C)CCCC(C)(C)[C@H]12`, the Activity entry in data set [1] is “Non-Toxic”. Also, the IC50 in data set [2] is above 50 µM.

Consider `C[C@H]1C2=CC(=O)O[C@]2(O)C[C@H]2[C@H]1C[C@@H](O)[C@H]1C(C)(C)CCC[C@]21C`, for which the Activity result in data set [1] is “Non-Toxic”. Moreover, the half-inhibitory concentration (IC50) in data set [2] was 21.5 µM.

In the case of `C[C@@H]1[C@@H]2C[C@@H](O)[C@H]3[C@](C)(CO)CCC[C@]3(C)[C@H]2C=C2NC(=O)C[C@@H]21`, in data set [1], the Activity entry is given as “Non-Toxic”. Further, the 50% inhibitory concentration (IC50) in data set [2] came out at 21 µM.

Turning to `C[C@H]1C2=CC(=O)OC2=C[C@H]2[C@H]1C[C@@H](O)[C@H]1C(C)(C)CCC[C@]21C`, the Activity entry in data set [1] is given as “Non-Toxic”. For the same compound, the IC50 in data set [2] was determined as 34.4 µM.

`C[C@@H]1C[C@H]2[C@@H]3CCC4=CC(=O)C=C[C@]4(C)[C@@]3(F)[C@@H](O)C[C@]2(C)[C@@]1(O)C(=O)CO` [DEXAMETHASONE]: the Activity result in data set [1] is listed as “Non-Toxic”. For the same compound, in data set [2], the IC50 came out at 0.58 µM.

On to `C[C@H]1C2=CC(=O)NC2=C[C@H]2[C@H]1C[C@@H](O)[C@H]1C(C)(C)CCC[C@]21C`, for which the inhibition result in data set [3] and in data set [4] was “Dose-Dependent Effect” each time. For the same compound, the Activity entry in data set [1] is “Non-Toxic”. In addition, the IC50 in data set [2] stood at 8.2 µM.

As for `CC(=O)O[C@@H]1C[C@@H]2[C@H](C=C3NC(=O)C=C3[C@@]2(C)O)[C@@]2(C)CCCC(C)(C)[C@H]12`, in data set [1], the Activity entry is given as “Non-Toxic”. Moreover, the IC50 in data set [2] came to 9.8 µM.

Consider `C[C@H]1C2=CC(=O)N(CCO)[C@@H]2C[C@H]2[C@H]1C[C@@H](O)[C@H]1C(C)(C)CCC[C@]21C`, for which, in data set [1], the Activity result is reported as “Non-Toxic”. For the same compound, the half-inhibitory concentration (IC50) in data set [2] was 16.4 µM.

Consider `CO[C@@]12C[C@H]3[C@@H](C[C@@H](O)[C@H]4[C@](C)(CO)CCC[C@]34C)[C@@H](C)C1=CC(=O)O2`, for which the Activity entry in data set [1] is recorded as “Non-Toxic”. The IC50 in data set [2] is above 50 µM.

As to `C[C@H]1C2=CC(=O)O[C@@H]2C[C@H]2[C@H]1C[C@@H](O)[C@H]1C(C)(C)CCC[C@]21C`, the Activity result in data set [1] is recorded as “Non-Toxic”. In addition, the IC50 in data set [2] is 40.3 µM.

On to `CO[C@@]12C[C@H]3[C@@H](CC[C@H]4C(C)(C)CCC[C@]34C)[C@@H](C)C1=CC(=O)O2`, for which, in data set [1], the Activity entry was “Non-Toxic”. Further, the half-inhibitory concentration (IC50) in data set [2] is above 50 µM.
